Assay results as given in patent US5932580A, “PDGF receptor kinase inhibitory compounds their preparation and compositions” (priority 1997, dated 1999).
Like-named read-outs stand apart in the source and are kept apart here.

Legend:
SRC kinase = target: T1, SRC kinase (Gallus gallus, UniProt P00523, Y527F); test: Src kinase activity assay (immunoprecipitate from src-transformed NIH 3T3 cells); assay type: biochemical, chicken
T1 construct: expressed in transfected cells; host or cells: NIH 3T3, stably transfected (gift of S. Courtneidge, Heidelberg)
Procedure: Src kinase activity assay: src-transformed NIH 3T3 cells were grown in 24-well plates to confluency; rinsed twice with a solution containing 20 mM Tris, 0.1 mM sodium-o-vanadate, and 150 mM NaCl (pH 7.5); and lysed in 100 μl/well of lysis buffer containing 20 mM Tris (pH 8.0), 150 mM NaCl, 1% Nonidet P-40, 2.5 mM EDTA, 10 mM NaF, 1% trasylol, and 20 μm leupeptin. The lysate was clarified by centrifugation and subjected to immunoprecipitation with the anti-Src monoclonal antibody MAb 327 (Oncogene Science; 0.5 μg antibody/80 μg protein) for 1 hour at 4° C. Then, goat anti-mouse IgG (Sigma; 0.2 μg per 0.5 μg monoclonal antibody 327) was added and incubation was continued for 30 mi followed by another 40 min of incubation with 10 μl of protein A-Sepharose Cl-4B (Pharmacia). The immunoprecipitates were washed five times with the lysis buffer and twice with kinase buffer containing 40 mM Hepes (pH 7.4), 0.5 mM dithiothreitol, 5 mM MnCl2, and 0.1 mM sodium-o-vanadate. The immunoprecipitates were suspended in kinase buffer and aliquots corresponding to 40 μg of cell lysate protein were preincubated with or without tyrphostin for 15 min at 30° C. Then, the kinase reaction was performed in the presence of 2 μg of acid-treated enolase and 10 μCi of [γ-^32 P]ATP (2 μM) in a final volume of 30 μl. The reaction was terminated by addition of SDS-PAGE sample buffer (6% SDS, 30% β-mercaptoetlhanol, 40% glycerol, and 0.5 mg/ml bromophenol blue) and the incorporation of radioactivity in the enolase was analyzed by SDS-PAGE and autoradiography as well as Phosphor-Imager quantification.

EGFR = target: T2, EGFR (Mus musculus, UniProt Q01279); test: EGFR autophosphorylation, isolated membranes or intact Swiss 3T3 cells; assay type: biochemical; conditions: read-out: IC50 (50% inhibition of phosphorylation) EGFR
T2 construct: Membranes were prepared from confluent cultures of Swiss 3T3 cells; endogenous in cells; host or cells: Swiss 3T3 (obtained from E. Rozengurt, London)
T2 sequence (Q01279 25-1210): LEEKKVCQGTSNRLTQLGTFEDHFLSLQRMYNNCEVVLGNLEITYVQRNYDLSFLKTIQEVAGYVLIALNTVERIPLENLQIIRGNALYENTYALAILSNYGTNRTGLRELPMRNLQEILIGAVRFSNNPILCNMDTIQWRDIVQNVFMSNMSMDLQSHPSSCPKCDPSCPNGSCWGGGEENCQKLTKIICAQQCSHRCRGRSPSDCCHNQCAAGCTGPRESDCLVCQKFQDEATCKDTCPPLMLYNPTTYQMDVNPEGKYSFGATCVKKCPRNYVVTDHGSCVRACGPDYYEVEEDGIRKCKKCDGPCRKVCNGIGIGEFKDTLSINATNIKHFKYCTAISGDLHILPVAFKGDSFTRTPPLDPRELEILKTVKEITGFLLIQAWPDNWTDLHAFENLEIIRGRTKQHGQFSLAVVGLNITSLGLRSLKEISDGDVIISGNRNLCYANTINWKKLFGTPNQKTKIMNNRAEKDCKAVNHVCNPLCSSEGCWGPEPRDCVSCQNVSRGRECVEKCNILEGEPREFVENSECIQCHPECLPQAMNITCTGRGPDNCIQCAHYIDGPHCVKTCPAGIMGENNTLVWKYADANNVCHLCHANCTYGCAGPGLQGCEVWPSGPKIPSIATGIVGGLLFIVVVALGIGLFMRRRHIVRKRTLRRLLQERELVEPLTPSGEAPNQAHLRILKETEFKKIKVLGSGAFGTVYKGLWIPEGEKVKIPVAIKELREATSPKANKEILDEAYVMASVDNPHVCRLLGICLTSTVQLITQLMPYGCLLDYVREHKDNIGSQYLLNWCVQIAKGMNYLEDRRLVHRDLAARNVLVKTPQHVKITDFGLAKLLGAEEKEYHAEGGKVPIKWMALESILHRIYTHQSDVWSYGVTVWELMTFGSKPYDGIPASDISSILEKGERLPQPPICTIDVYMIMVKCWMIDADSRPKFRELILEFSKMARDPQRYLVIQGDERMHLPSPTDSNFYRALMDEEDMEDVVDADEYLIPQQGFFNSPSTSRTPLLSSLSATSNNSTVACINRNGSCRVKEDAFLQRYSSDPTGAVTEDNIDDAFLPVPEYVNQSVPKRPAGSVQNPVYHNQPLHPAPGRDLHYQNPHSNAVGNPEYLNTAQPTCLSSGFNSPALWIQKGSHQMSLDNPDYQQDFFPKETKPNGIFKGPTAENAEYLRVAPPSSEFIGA
Procedure: Membrane autophosphorylation assays: Membranes were prepared from confluent cultures of Swiss 3T3 cells as described [22]. For measuring receptor autophosphorylation, 10 μg membrane protein per assay were incubated for 20 min on ice in the presence of 1.2 μg/ml EGF or 2 μg/ml PDGF, or both; 50 mM Hepes (pH 7.5); and 3 mm MnCl2 (final concentrations) in a volume of 45 μl. In order to test the effects and determine the IC50 value of various tyrphostins, these were added in a volume of 0.5 μl (in DMSO; final concentration, 0.5%) 15 min before addition of the growth factors, in a range of concentrations. […] For quantification of radioactivity in electrophoresis gels, a Phospho-Imager (Molecular Dynamics, Fuji, or Bio-Rad) was used according to the instructions of the manufacturers. […]

PDGFR = PDGFR autophosphorylation, isolated membranes or intact Swiss 3T3 cells; assay type: biochemical; conditions: read-out: IC50 (50% inhibition of phosphorylation) PDGFR
Procedure: Assay of receptor autophosphorylation in intact 3T3 cells: Confluent Swiss 3T3 cells in 24-well plates (Nunc) were incubated for 20-24 hours in serum-free DMEM. Subsequently, tyrphostins were added at concentrations ranging from 0 to 100 μM (final DMSO concentration, 0.5%) and the incubation was continued for 6-8 hours. The cells were then stimulated with 100 ng/ml PDGF-BB for 5 min at room temperature or 600 ng/ml EGF for 2.5 min on ice. The growth factor treatment was terminated by washing twice with ice-cold PBS and the cells were scraped off the wells in 60 μl lysis buffer containing 20 mM Hepes (pH 7.4), 150 mM NaCl, 1% Triton X-100, 10 mM sodium pyrophosphate, 50 mM NaF, 2 mM sodium-o-vanadate, 20 μm zinc acetate, 10 nM EDTA, 2 mM [ethylenebis(oxyethilenenitrilo)] tetraacetic acid, 1 mM phenylmethylsulfonyl fluoride, and 5 μg/ml leupeptin.
The cell lysates were clarified by centrifugation (cooled microfuge, 17,000 rpm, 15 min) and analyzed by SDS-PAGE (6.5% gels) and immunoblotting with anti-phosphotyrosine antibodies (either PY 20, ICN, and subsequently a peroxidase-coupled secondary antibody, or RC20-peroxidase conjugate, Affinity, Nottingham, United Kingdom). The blots were developed with a chemiluminescence detection system (Western Light, Tropix, or ECL, Amersham). In some experiments PDGF receptors were immunoprecipitated with PDGF-R3 or DIG-1 antibodies as described prior to the analysis by immunoblotting with anti-phosphotyrosine antibodies.
Membrane autophosphorylation assays: Membranes were prepared from confluent cultures of Swiss 3T3 cells as described. For measuring receptor autophosphorylation, 10 μg membrane protein per assay were incubated for 20 min on ice in the presence of 1.2 μg/ml EGF or 2 μg/ml PDGF, or both; 50 mM Hepes (pH 7.5); and 3 mm MnCl2 (final concentrations) in a volume of 45 μl. […] For quantification of radioactivity in electrophoresis gels, a Phospho-Imager (Molecular Dynamics, Fuji, or Bio-Rad) was used according to the instructions of the manufacturers. […]

PDGF β-receptor = target: T3, PDGF β-receptor (Sus scrofa, UniProt F1RL75); test: PDGF induced PDGFR autophosphorylation in intact SMC cells; assay type: cell-based; conditions: porcine arterial SMC
T3 construct: PDGF-BB stimulated; immunoprecipitated with PDGF beta-receptor specific antiserum R3
T3 sequence (F1RL75 109-1181): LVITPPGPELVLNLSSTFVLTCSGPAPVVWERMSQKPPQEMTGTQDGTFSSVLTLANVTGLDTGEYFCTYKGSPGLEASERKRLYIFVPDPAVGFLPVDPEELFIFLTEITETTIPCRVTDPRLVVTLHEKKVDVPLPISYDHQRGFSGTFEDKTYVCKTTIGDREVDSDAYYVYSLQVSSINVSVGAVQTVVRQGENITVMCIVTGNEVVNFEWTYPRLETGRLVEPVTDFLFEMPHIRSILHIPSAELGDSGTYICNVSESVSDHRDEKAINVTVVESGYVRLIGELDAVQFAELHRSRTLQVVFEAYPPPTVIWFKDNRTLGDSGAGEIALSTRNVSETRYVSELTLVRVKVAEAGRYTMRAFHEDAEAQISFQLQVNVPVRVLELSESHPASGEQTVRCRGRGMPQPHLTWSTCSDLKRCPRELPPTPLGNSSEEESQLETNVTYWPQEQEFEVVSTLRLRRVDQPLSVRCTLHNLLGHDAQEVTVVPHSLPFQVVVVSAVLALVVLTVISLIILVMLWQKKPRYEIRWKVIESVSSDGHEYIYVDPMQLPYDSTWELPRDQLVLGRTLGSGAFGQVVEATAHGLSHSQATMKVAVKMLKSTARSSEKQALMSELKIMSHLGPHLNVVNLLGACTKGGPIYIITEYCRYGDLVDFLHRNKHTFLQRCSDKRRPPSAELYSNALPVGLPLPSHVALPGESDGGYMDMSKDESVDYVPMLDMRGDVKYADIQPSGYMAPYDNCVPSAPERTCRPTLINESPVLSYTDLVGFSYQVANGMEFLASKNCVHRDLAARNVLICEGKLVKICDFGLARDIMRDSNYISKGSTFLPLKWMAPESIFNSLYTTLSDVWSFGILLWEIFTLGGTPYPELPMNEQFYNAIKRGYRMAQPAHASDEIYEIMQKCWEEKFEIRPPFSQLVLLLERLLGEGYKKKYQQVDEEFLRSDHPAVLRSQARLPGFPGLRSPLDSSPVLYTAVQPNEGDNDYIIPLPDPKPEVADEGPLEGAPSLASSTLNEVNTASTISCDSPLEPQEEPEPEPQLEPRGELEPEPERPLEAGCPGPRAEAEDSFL
Procedure: Effect of tyrphostins on PDGF induced PDGFR autophosphorylation in intact SMC cells: Subconfluent porcine arterial smooth muscle cells, cultivated in Dulbecco's modified Eagle's medium (DMEM) supplemented with 15% fetal calf serum (FCS), were synchronized for 20 hours in a medium containing 2% FCS. […] After stimulation, the cells were solubilized in Nonidet P-40 (1%) containing lysis buffer.
The analysis of PDGF p-receptor phosphorylation was performed as follows. Cell lysates were subjected to immunoprecipitation using the PDGF β-receptor specific antiserum R3 [5]. The percipitates were subjected to polyacrylamide (7.5%) gel electrophoresis in presence of sodium deducyl sulfate (SDS-PAGE) and were thereafter blotted onto a nitrocellulose membrane (Hybond C-EXTRA, Amersham). Phosphorylated proteins were detected by immunoblotting using the horseradish-peroxidase conjugated phosphotyrosine antibody RC20H (Transduction Laboratories), followed by chemoluminescence-based detection (ECL, Amersham) and autoradiography.
Detection of receptor proteins was performed as follows. Cell lysates were subjected to immunoprecipitation using the PDGF β-receptor specific antiserum R3 [5], as described above, and the percipitates washed three times and thereafter subjected to SDS-PAGE (7.5%) and blotting onto a nitrocellulose membrane (Hybond C-EXTRA, Amersham). Receptor proteins were detected by immunoblotting using the horseradish-peroxidase conjugated donkey anti-rabbit antibody (Amersham), followed by chemoluminescence-based detection (ECL, Amersham) and autoradiography.

[1] = tested on: porcine aortic smooth muscle cells (SMC); test: Inhibition of cell proliferation and recovery, porcine SMC; assay type: cell-based; conditions: for inhibition at 10 µM: Sus scrofa
Procedure: Smooth muscle cells (SMC) were obtained under aseptic conditions from porcine abdominal aortas, and human internal mammary arteries (IMA). Specimens from the operating room were transferred on ice to the tissue culture room. Each artery was cut open and the endothelial surface mechanically scraped. […] The tissue fragments were then placed in an incubator at 37° C. under 9% CO2 atmosphere until SMC outgrowth was detected (typically within 3-7 days). […] For experiments testing the effect of tyrphostins on growth inhibition and recovery (see below), SMC from passages 1-3 were replated in 15 mm wells pretreated with 3 μg/cm^2 fibronectin (Biological Industries, Kibbutz Beit Haemek, Israel) at 15,000 cells/well.
Inhibition of cell proliferation and recovery: Monolayer cell growth inhibition and recovery experiments were repeated 3 or 4 times. Each experiment was performed in triplicate. […] Cultures were treated with a tyrphostin (10 μM) dissolved in 0.1% DMSO on days 1 and 3. On day 6, cultures were washed and the cells allowed to recover. Typically cells were counted on days 3 and 5 for inhibition, and on days 7, 10 and 15 for recovery, other schedules were also employed as reported below.

Cc1cc2ncc(-c3cccs3)nc2cc1C [AG1990] was tested, and the IC50 (SRC kinase) was 20 µM, the IC50 (EGFR) was greater than 30 µM and the IC50 (PDGFR) was 1 µM. The “level of PDGF β-receptor protein present in the cells” value (PDGF β-receptor) was “without affecting the level”, the “inhibition of PDGF-BB induced PDGF β-receptor tyrosine-phosphorylation” value (PDGF β-receptor; tyrphostin 10 μM, 60 min preincubation, PDGF-BB 100 ng/ml) was “completely inhibited” and the inhibition at 10 µM ([1]; 120 h, by day 5 (day given for AG1295 and AG1992), read-out: reduction in SMC count / inhibition of SMC growth over control) was 50%. The inhibition at 10 µM ([1]; Table 2, read-out: mean reduction in SMC count compared to control cells (maximal inhibition in SMC growth)) was 50% and the “reversibility of the inhibitory effect / recovery of SMC growth after washout” value ([1]; porcine SMC, cultures washed, cells allowed to recover) was “completely reversible”.
